How the values were obtained:
[1] = tested on: recombinant NL4-3 virus (Renilla luciferase) in MT-2 cells; assay: HIV cell culture assay (antiviral, luciferase readout in infected MT-2 cells); assay type: cell-based; conditions: NL43
Experimental: HIV cell culture assay—MT-2 cells, 293T cells and the proviral DNA clone of NL4-3 virus were obtained from the NIH AIDS Research and Reference Reagent Program. MT-2 cells were propagated in RPMI 1640 media supplemented with 10% heat inactivated fetal bovine serum (FBS), […]. The 293T cells were propagated in DMEM media supplemented with 10% heat inactivated FBS, […]. A recombinant NL4-3 proviral clone, in which a section of the nef gene was replaced with the Renilla luciferase gene, was used to make the reference virus used in these studies. The recombinant virus was prepared through transfection of the recombinant NL4-3 proviral clone into 293T cells using Transit-293 Transfection Reagent from Mirus Bio LLC (Madison, Wis.). Supernatent was harvested after 2-3 days and the amount of virus present was titered in MT-2 cells using luciferase enzyme activity as a marker by measuring luciferase enzyme activity. Luciferase was quantitated using the EnduRen Live Cell Substrate from Promega (Madison, Wis.). Antiviral activities of compounds toward the recombinant virus were quantified by measuring luciferase activity in MT-2 cells infected for 4-5 days with the recombinant virus in the presence of serial dilutions of the compound.
The 50% effective concentration (EC50) was calculated by using the exponential form of the median effect equation where (Fa)=1/[1+(ED50/drug conc.)m] (Johnson V A, Byington R T. Infectivity Assay. In Techniques in HIV Research. ed. Aldovini A, Walker B D. 71-76. New York: Stockton Press. 1990). The 50% inhibitory concentration (EC50) was calculated by using the exponential form of the median effect equation where percent inhibition=1/[1+(EC50/drug concentration)m], where m is a parameter that reflects the slope of the concentration-response curve.

[2] = Compound cytotoxicity, XTT-based colorimetric assay in uninfected MT2 cells; assay type: cell-based; conditions: human, day 4, XTT assay
Experimental: Compound cytotoxicity and the corresponding CC50 values were determined using the same protocol as described in the antiviral assay except that uninfected cells were used. Cytotoxicity was assessed on day 4 in uninfected MT2 cells by using an XTT (2,3-bis[2-Methoxy-4-nitro-5-sulfophenyl]-2H-tetrazolium-5-carboxyanilide inner salt)-based colorimetric assay (Sigma-Aldrich, St Louis, Mo.).

SMILES: Cn1nc(NS(C)(=O)=O)c2c(Cl)ccc(-n3c([C@H](Cc4cc(F)cc(F)c4)NC(=O)Cn4nc(C5CC5)c5c4C(F)(F)[C@@H]4C[C@H]54)nc4nc(OCCC(F)(F)F)ccc4c3=O)c21 (atropisomer, axis not shown; (P)) [Example 3, N—((S)-1-((3P)-3-(4-chloro-1-methyl-3-(methylsulfonamido)-1H-indazol-7-yl)-4-oxo-7-(3,3,3-trifluoropropoxy)-3,4-dihydropyrido[2,3-d]pyrimidin-2-yl)-2-(3,5-difluorophenyl)ethyl)-2-((3bS,4aR)-3-cyclopropyl-5,5-difluoro-3b,4,4a,5-tetrahydro-1H-cyclopropa[3,4]cyclopenta[1,2-c]pyrazol-1-yl)acetamide]
- EC50 [1]: 0.014 nM
- CC50 at 4 day [2]: > 100 nM

SMILES: Cn1nc(NS(C)(=O)=O)c2c(Cl)ccc(-n3c([C@H](Cc4cc(F)cc(F)c4)NC(=O)Cn4nc(C5CC5)c5c4C(F)(F)[C@H]4C[C@@H]54)nc4nc(OCCC(F)(F)F)ccc4c3=O)c21 (atropisomer, axis not shown; (P)) [Example 4, N—((S)-1-((3P)-3-(4-chloro-1-methyl-3-(methylsulfonamido)-1H-indazol-7-yl)-4-oxo-7-(3,3,3-trifluoropropoxy)-3,4-dihydropyrido[2,3-d]pyrimidin-2-yl)-2-(3,5-difluorophenyl)ethyl)-2-((3bR,4aS)-3-cyclopropyl-5,5-difluoro-3b,4,4a,5-tetrahydro-1H-cyclopropa[3,4]cyclopenta[1,2-c]pyrazol-1-yl)acetamide]
- EC50 [1]: 0.079 nM
- CC50 at 4 day [2]: > 100 nM

SMILES: Cn1nc(NS(C)(=O)=O)c2c(Cl)ccc(-n3c([C@H](Cc4cc(F)cc(F)c4)NC(=O)Cn4nc(C5CC5)c5c4C(F)(F)[C@H]4C[C@@H]54)nc4nc(OCCC(C)(F)F)ccc4c3=O)c21 (atropisomer, axis not shown; (P)) [Example 2, N—((S)-1-((3P)-3-(4-chloro-1-methyl-3-(methylsulfonamido)-1H-indazol-7-yl)-7-(3,3-difluorobutoxy)-4-oxo-3,4-dihydropyrido[2,3-d]pyrimidin-2-yl)-2-(3,5-difluorophenyl)ethyl)-2-((3bR,4aS)-3-cyclopropyl-5,5-difluoro-3b,4,4a,5-tetrahydro-1H-cyclopropa[3,4]cyclopenta[1,2-c]pyrazol-1-yl)acetamide]
- EC50 [1]: 0.05 nM
- CC50 at 4 day [2]: > 100 nM

SMILES: Cn1nc(NS(C)(=O)=O)c2c(Cl)ccc(-n3c([C@H](Cc4cc(F)cc(F)c4)NC(=O)Cn4nc(C5CC5)c5c4C(F)(F)[C@@H]4C[C@H]54)nc4nc(OCCC(C)(F)F)ccc4c3=O)c21 (atropisomer, axis not shown; (P)) [Example 1, N—((S)-1-((3P)-3-(4-chloro-1-methyl-3-(methylsulfonamido)-1H-indazol-7-yl)-7-(3,3-difluorobutoxy)-4-oxo-3,4-dihydropyrido[2,3-d]pyrimidin-2-yl)-2-(3,5-difluorophenyl)ethyl)-2-((3bS,4aR)-3-cyclopropyl-5,5-difluoro-3b,4,4a,5-tetrahydro-1H-cyclopropa[3,4]cyclopenta[1,2-c]pyrazol-1-yl)acetamide]
- EC50 [1]: 0.027 nM
- CC50 at 4 day [2]: > 100 nM
